Data taken from patent US7112578B2, “Methods and compositions for treatment of inflammatory disease” (priority 2000, dated 2006).

What was measured:
Format in all cases: in vivo, human
knee arthritis = test: Treatment of knee arthritis with a CMO compound and a tetracycline compound (case report)
Method: NSAID therapy was halted and tetracycline therapy was added.

[1] = system: ankle and knee arthritis pain; test: Treatment of ankle and knee arthritis with a CMO compound and doxycycline (case report)
bilateral hip arthritis = test: Treatment of bilateral hip arthritis with a CMO compound and doxycycline (case report)
Method: Doxycycline therapy was used for treatment of a middle aged person suffering from bilateral hip arthritis and experiencing severe pain despite increasing doses of NSAIDs. […] Cox-2 inhibitors were substituted for the NSAID agents with better results. However, over time, it was necessary to increase the doses of both agents to two to three times the initial dose in order to maintain adequate symptomatic relief. […] A CMO compound was added and the dosage of the other agents decreased to initial levels. […] The Cox-2 agent was discontinued with no increase in severity of symptoms.

bee sting = test: Relief of venom induced inflammation, topical treatment of bee stings (case report); settings: bee sting on one arm of the same individual
Method: Different bee stings on the same individual were treated by two different methods. A bee sting on one arm was treated with papain with mild relief from pain and swelling. A second bee sting on the other arm was treated with papain, a eutectic mixture of local anaesthetics (EMLA®) and a topical steroid (Kenalog). […] The improved relief from pain was apparent even after all other sensation had returned to normal in the area which received the EMLA® treatment.

[2] = dosage of doxycycline and Cox-2 agent decreased to initial levels

CCCC/C=C\CCCCCCCC(=O)OCCCCCCCCCCCCCCCC [CMO, cetyl myristoleate]
symptoms when the agent was discontinued (knee arthritis; despite increase in dose of the remaining agent): symptoms worsened | symptomatic relief of knee arthritis (knee arthritis; middle-aged, one patient): did not respond well | symptoms when the agent was discontinued ([1]; combination of CMO compound and doxycycline): Symptoms returned | relief of ankle and knee arthritis pain ([1]; female senior citizen, CMO therapy alone): no or minimal relief | side effects after a CMO compound was added (bilateral hip arthritis; [2]): side effects disappeared | symptomatic relief after a CMO compound was added (bilateral hip arthritis; [2]): improved symptomatic relief | symptoms when the agent was discontinued (bilateral hip arthritis; patient on CMO compound and doxycycline): worsening symptomatology

C[C@H]1c2cccc(O)c2C(=O)C2=C(O)[C@]3(O)C(=O)C(C(N)=O)=C(O)[C@@H](N(C)C)[C@@H]3[C@@H](O)[C@@H]21 [doxycycline, reference compound]
side effects at two to three times the initial dose of both agents (bilateral hip arthritis; doxycycline with Cox-2 inhibitor): dizziness, nausea and abdominal pain | side effect, doxycycline added to NSAIDs (bilateral hip arthritis; middle aged person): gastrointestinal upset was problematic

B1: papain (protein, UniProt P00784 134-345, looked up)
Papain: IPEYVDWRQKGAVTPVKNQGSCGSCWAFSAVVTIEGIIKIRTGNLNEYSEQELLDCDRRSYGCNGGYPWSALQLVAQYGIHYRNTYPYEGVQRYCRSREKGPYAAKTDGVRQVQPYNEGALLYSIANQPVSVVLEAAGKDFQLYRGGIFVGPCGNKVDHAVAAVGYGPNYILIKNSWGTGWGENGYIRIKRGTGNSYGVCGLYTSSFYPVKN
notes: proteolytic enzyme applied topically
relief from pain (bee sting): mild relief | swelling (bee sting): mild relief
